Measured values taken from the supplement of paper PMC10307832.

Key:
Test in all cases: relative viability (nuclei count vs DMSO), 5 days (fraction); higher = more cells survive
[1] = compound: CC[C@H](C)N1C=C(C2=C(C=C(C=C21)C3=CN=C(C=C3)N4CCNCC4)C(=O)NCC5=C(C=C(NC5=O)C)C)C [GSK126] + O=C(CCCCCCC(=O)Nc1ccccc1)NO [Vorinostat] (partner 1 µM)
Method in brief: (§1)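 Five library-drug doses in √10 steps were combined with a fixed anchor-drug dose, or a single drug was given alone, by pin tool to lung cancer cell lines in 1536-well plates the day after seeding. Nuclei were stained and counted after 5 days. Relative viability is the nuclei count in treated wells over that in vehicle wells, taken as the median of duplicate plates.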

[2] = compound: C1CC(C1)(C(=O)O)C(=O)O.[NH2-].[NH2-].[Pt+2] [Carboplatin] + CC1(C)CCC(c2ccc(Cl)cc2)=C(CN2CCN(c3ccc(C(=O)NS(=O)(=O)c4ccc(N[C@H](CCN5CCOCC5)CSc5ccccc5)c(S(=O)(=O)C(F)(F)F)c4)cc3)CC2)C1 [Navitoclax] (partner 0.5 µM)
Method in brief: as §1

[3] = compound: NS(=O)(=O)OC[C@@H]1C[C@@H](n2ccc3c(N[C@H]4CCc5ccccc54)ncnc32)C[C@@H]1O [MLN4924] + Cc1nc(Nc2ncc(C(=O)Nc3c(C)cccc3Cl)s2)cc(N2CCN(CCO)CC2)n1 [Dasatinib] (partner 0.075 µM)
Method in brief: as §1

[4] = compound: C1CC(C1)(C(=O)O)C(=O)O.[NH2-].[NH2-].[Pt+2] [Carboplatin] + CS(=O)(=O)CCNCc1ccc(-c2ccc3ncnc(Nc4ccc(OCc5cccc(F)c5)c(Cl)c4)c3c2)o1 [Lapatinib] (partner 2 µM)
Method in brief: as §1

Row | Cell Line | relative viability ([1]; first compound 0.08 µM) | relative viability ([1]; first compound 0.253 µM) | relative viability ([1]; first compound 0.8 µM) | relative viability ([1]; first compound 2.53 µM) | relative viability ([1]; first compound 8 µM) | relative viability ([2]; first compound 0.08 µM) | relative viability ([2]; first compound 0.253 µM) | relative viability ([2]; first compound 0.8 µM) | relative viability ([2]; first compound 2.53 µM) | relative viability ([2]; first compound 8 µM) | relative viability ([3]; first compound 0.04 µM) | relative viability ([3]; first compound 0.1265 µM) | relative viability ([3]; first compound 0.4 µM) | relative viability ([3]; first compound 1.265 µM) | relative viability ([3]; first compound 4 µM) | relative viability ([4]; first compound 0.08 µM) | relative viability ([4]; first compound 0.253 µM) | relative viability ([4]; first compound 0.8 µM) | relative viability ([4]; first compound 2.53 µM) | relative viability ([4]; first compound 8 µM)
1 | NCI-H2347 | 0.659 | 0.479 | 0.503 | 0.601 | 0.563 | 0.897 | 0.929 | 0.771 | 0.721 | 0.673 | 0.265 | 0.369 | 0.231 | 0.218 | 0.244 | 1.02 | 0.926 | 0.918 | 0.949 | 0.888
2 | NCI-H2405 | 1.12 | 0.933 | 1.01 | 1.05 | 1.04 | 0.869 | 0.862 | 0.639 | 0.629 | 0.62 | 0.39 | 0.491 | 0.428 | 0.242 | 0.205 | 1.31 | 1.06 | 1.12 | 1.15 | 0.904
3 | NCI-H3122 | 1.14 | 1.15 | 0.933 | 1.06 | 1.18 | 1.03 | 0.988 | 1.01 | 1.02 | 0.97 | 0.148 | 0.487 | 0.147 | 0.056 | 0.071 | 1.1 | 1 | 0.981 | 0.953 | 0.995
4 | PC-3 [JPC-3] | 0.949 | 0.82 | 0.806 | 1 | 0.825 | 0.85 | 0.78 | 0.83 | 0.717 | 0.725 | 1.04 | 1.09 | 0.897 | 0.36 | 0.27 | 0.451 | 0.458 | 0.465 | 0.468 | 0.446
5 | PC-14 | 0.768 | 0.732 | 0.623 | 0.745 | 0.692 | 0.991 | 0.974 | 0.985 | 0.918 | 0.566 | 0.304 | 0.294 | 0.195 | 0.0356 | 0.0313 | 0.312 | 0.368 | 0.33 | 0.354 | 0.251
6 | RERF-LC-KJ | 0.747 | 0.791 | 0.654 | 0.716 | 0.827 | 1.29 | 0.739 | 0.822 | 0.915 | 0.652 | 0.717 | 0.661 | 0.266 | 0.206 | 0.242 | 0.854 | 0.838 | 0.822 | 0.841 | 0.726
7 | SK-LU-1 | 0.852 | 0.684 | 0.781 | 0.776 | 0.905 | 0.824 | 0.774 | 0.946 | 0.872 | 0.387 | 0.217 | 0.249 | 0.12 | 0.117 | 0.141 | 0.99 | 1.01 | 0.766 | 0.797 | 0.735
8 | SK-MES-1 | 1.12 | 1.19 | 1.04 | 1.04 | 1.13 | 1.13 | 1.3 | 1.2 | 1.21 | 1.16 | 0.584 | 0.626 | 0.256 | 0.121 | 0.147 | 0.469 | 0.475 | 0.506 | 0.548 | 0.472
9 | SW 1573 | 1.02 | 0.704 | 0.681 | 0.735 | 0.852 | 0.91 | 1.03 | 0.922 | 1.1 | 0.543 | 0.697 | 0.634 | 0.247 | 0.0507 | 0.0578 | 1.05 | 1.1 | 1.17 | 1.3 | 0.961
